Results published in US10106540B2, “HDAC6 inhibitors and their uses” (Universität Regensburg, priority 2014, dated 2018).
pIC50: −log10 of the molar value. Values belong to the compound of their own block, whether it stands above or below them.

Key:
MAXF 401 = assay: In vitro activity against solid tumor cell lines (FACS analysis method a); format: cell-based; details: Homo sapiens, MAXF401, Breast
Description: (§1) Human breast cancer cell lines MAXF 401 and MAXF MCF-7 (Oncotest GmbH, Freiburg, Germany)
(§2) The assay is carried out as described in Pietschmann et al., 2012 and Brandl et al. 2012. Briefly, 10^5 cells were fixed in 1 ml 70% EtOH with 0.05% Tween-20 overnight at 4° C. The following day, cells were washed with 3 ml 38 mM sodium citrate, pH 7.4, and incubated for 20 min at 37° C. in 0.5 ml 38 mM sodium citrate, pH 7.4, supplemented with 50 μg/ml propidium iodide and 10 μg/ml RNase-A. DNA contents of the cells were measured by fluorescence-activated cell sorter (FACS). This method allows detection of the apoptotic subG1-fraction, which has a DNA content below 2n due to apoptotic cleavage of DNA. Equally, the cell cycle profile can be assessed with this method.
(§3) The novel HDAC6 inhibitors were tested in a panel of tumor cell lines for cytostatic/toxic activities (see Table 2).

MAXF MCF-7 = assay: as above; format: cell-based; details: Homo sapiens, MCF7, Breast
Description: as §1, §2, §3

PRXF DU-145 = assay: as above; format: cell-based; details: Homo sapiens, Prostate
Description: (§4) Human prostate cancer cell lines PRXF DU-145, PRXF LNCaP, PRXF PC-3M (Oncotest GmbH, Freiburg, Germany)
as §2, §3

PRXF LNCaP = assay: as above; format: cell-based; details: Homo sapiens, Prostate
Description: as §4, §2, §3

PRXF PC-3M = assay: as above; format: cell-based; details: Homo sapiens, Prostate
Description: as §4, §2, §3

UXF 1138 = assay: as above; format: cell-based; details: Homo sapiens, Uterus
Description: Human uterus cancer cell line UXF 1138 (Oncotest GmbH, Freiburg, Germany)
as §2, §3

[1] = test system: 42 solid tumor cell lines; assay: In vitro activity against solid tumor cell lines, mean of all lines; format: cell-based; details: average IC50 value from all 42 measurements
BV-173 cells [2] = assay: Western blot analysis in BV-173 cells; format: cell-based, human; details: for acetylation of histone H3: BV-173, 1 μM MARB1, 2 μM MARB2 or 2 mM VPA
Description: BV-173 cells (BCR-ABL positive leukemic cells) were used as control cells left (Ctl) or with 1 μM MARB1, 2 μM MARB2 or 2 mM VPA treated for 24 h. These concentrations were chosen to achieve equipotent effects on cells which was in preliminary tests (data not shown). Shown are acetylated tubulin-α, α-tubulin, acetylated histone H3, WT1, survivin and β-actin. The total amount of α-tubulin and β-actin were used as loading control. Mr, relative molecular weight in kilodaltons. The degradation of WT1 in patients treated with VPA cells bases on a loss of WT1 mRNA and the increased degradation of WT1 protein by induction of the E2 ubiquitin conjugase UbcH8.
(§5) Flow cytometric analysis of the induction of (A) apoptotic DNA fragmentation and (B) Cell cycle analysis of BV 173 cells. The cells were kept as control cells (Ctl), treated with 1 μM or 2 μM MARB1 MARB2 and 0.2 or 0.5 μM imatinib for 48 h. The data was received by two independent experiments. The individual compounds show only slight effects in the used concentrations; whereas their combination can effectively kill leukemic cells. (C) Western blot analysis on data from the BCR-ABL, acetylated tubulin and α-sliced PARP1; the total amount of tubulin-α serves as a loading control. BV-173 cells were treated for 24 h with 1 μM, or 2 μM MARB1 or MARB2.
(§6) Human leukemia cell lines BV 173 and K562 with BCR-ABL mutation (Leibniz Institute DSMZ—German Collection of Microorganisms and Cell Cultures, DSMZ Accession Nos: ACC-20 and ACC-10).
(§7) The assay is carried out as described in Buchwald et al. 2010 and Buchwald et al. 2013. Briefly, cells were collected and lysed in NET-N buffer (150 mM NaCl, 1 mM EDTA, 50 mM Tris-HCl (pH 7.8), 0.5% Nonidet P-40 (NP-40), 1 mM phenylmethylsulfonyl fluoride, 0.5 mg/ml leupeptin and 0.5 mg/ml pepstatin) followed by mild sonification on ice. Protein lysate ([…]) was boiled in Laemmli buffer and separated on SDS-polyacrylamide gel electrophoresis for western blotting with specific antibodies. All lysates were assessed by Bradford assay for protein concentrations.

BV-173 cells [3] = assay: Flow cytometric analysis of BV-173 cells, combination with imatinib; format: cell-based, human; details: BV-173, 1 μM MARB1 or 2 μM MARB2 combined with 0.2 or 0.5 μM imatinib, 48 h
Description: as §5, §6
as §2, with “This method allows detection of the apoptotic subG1-fraction, which has a DNA content below 2n due to apoptotic cleavage of DNA.” left out

HEL leukemic cells = assay: Western blot analysis in HEL leukemic cells (JAK2 V617F); format: cell-based, human; details: for concentration with about the same potency in hyperacetylation of tubulin-α: 24 h, Western blot
Description: Human leukemia cell line HEL with JAK2 V617F mutation (DSMZ Accession No: ACC-11).
as §7

HCT-116 cells = assay: Western blot analysis in HCT-116 colon cancer cells; format: cell-based, human; details: HCT-116 cells, 24 h
Description: FIG. 5. Various cancer cells were treated for 24 h as shown and tested by Western blot analysis. […] Human colon cancer cell lines RKO (ATCC Accession No: CRL-2577) and HCT-116 (DSMZ Accession No: ACC-581). Western Blot Analysis a […] Protein lysate ([…]) was boiled in Laemmli buffer and separated on SDS-polyacrylamide gel electrophoresis for western blotting with specific antibodies. All lysates were assessed by Bradford assay for protein concentrations.

RKO cells = assay: Western blot analysis in RKO colorectal cancer cells; format: cell-based, human
Description: FIG. 5. Various cancer cells were treated for 24 h as shown and tested by Western blot analysis.
(D) Inhibition of HDAC6 protects it from degradation by the addition of a pro-apoptotic agent (staurosporine, ST).
The total amount of vinculin serves as a loading control; Proof of tubulin acetylation serves as proof of the treatment accuracy. The loss of the caspase-3 corresponds to the induction of apoptosis (programmed cell death).
Human colon cancer cell lines RKO (ATCC Accession No: CRL-2577) and HCT-116 (DSMZ Accession No: ACC-581).
as §7

[4] = BV-173, 1 μM MARB1, 2 μM MARB2, 24 h

pIC50 (MAXF 401): 4.86 | pIC50 (MAXF MCF-7): 5.11 | pIC50 (PRXF DU-145): 4.99 | pIC50 (PRXF LNCaP): 5.32 | pIC50 (PRXF PC-3M): 4.68 | pIC50 (UXF 1138): 5.26 | pIC50 [1]: 4.79
Compound: CN1CC(=O)N2Cc3c(c4ccccc4n3Cc3ccc(C(=O)NO)cc3)C(C2)C1=O (stereo not drawn) [MARB2, N-Hydroxy-4-((5-methyl-3,6-dioxo-4,5,6,7-tetrahydro-1H-2,7-methano[1,4]diazonino[6,7-b]indol-12(3H)-yl)methyl)benzamide]
acetylation of tubulin-α (BV-173 cells [2]; [4]): hyperacetylation of tubulin-α | expression of survivin (BV-173 cells [2]; [4]): reduction of the expression of survivin | acetylation of histone H3 (BV-173 cells [2]; 24 h): Neither MARB1, nor MARB2 cause these alterations | BCR-ABL expression on the protein level (BV-173 cells [2]; BV-173, compound alone, 24 h): do not affect | BCR-ABL stabilization/degradation in combination with imatinib (BV-173 cells [2]; BV-173, with imatinib, 24 h): significantly inhibit the unwanted stabilization of BCR-ABL | apoptotic and necrotic sub-G1 populations (BV-173 cells [3]): significantly increases | concentration with about the same potency in hyperacetylation of tubulin-α (HEL leukemic cells): ~2 µM | tubulin acetylation and degradation (HCT-116 cells): starts the hyperacetylation of tubulin in colon carcinoma cells (RKO and HCT-116 cells) without destroying it | hyperacetylation of tubulin (RKO cells; 0.5 μM, 24 h): sufficient to induce hyperacetylation of tubulin | HDAC6 loss in staurosporin (ST)-treated cells (RKO cells; with staurosporine): protects ST-treated RKO cells

Compound: CCCC(CCC)C(=O)O [VPA, reference compound]
acetylation of histone H3 (BV-173 cells [2]; 24 h): induces hyperacetylation of histone H3

Compound: CN1CCc2c(c3ccccc3n2Cc2ccc(C(=O)NO)cc2)C1 [tubastatin A, reference compound]
concentration with about the same potency in hyperacetylation of tubulin-α (HEL leukemic cells): ~5 µM

Compound: Cc1[nH]c2ccccc2c1CCNCc1ccc(/C=C/C(=O)NO)cc1 [LBH589, reference compound]
acetylation of tubulin-α (HEL leukemic cells; compared to other inhibitors): decreased acetylation of tubulin-α | tubulin acetylation and degradation (HCT-116 cells): degradation of tubulin
